Molecular target: T1, M4 (Homo sapiens, UniProt P08173)
T1 construct: expressed in transfected cells; host or cells: CHO cells
T1 sequence (P08173 1-479): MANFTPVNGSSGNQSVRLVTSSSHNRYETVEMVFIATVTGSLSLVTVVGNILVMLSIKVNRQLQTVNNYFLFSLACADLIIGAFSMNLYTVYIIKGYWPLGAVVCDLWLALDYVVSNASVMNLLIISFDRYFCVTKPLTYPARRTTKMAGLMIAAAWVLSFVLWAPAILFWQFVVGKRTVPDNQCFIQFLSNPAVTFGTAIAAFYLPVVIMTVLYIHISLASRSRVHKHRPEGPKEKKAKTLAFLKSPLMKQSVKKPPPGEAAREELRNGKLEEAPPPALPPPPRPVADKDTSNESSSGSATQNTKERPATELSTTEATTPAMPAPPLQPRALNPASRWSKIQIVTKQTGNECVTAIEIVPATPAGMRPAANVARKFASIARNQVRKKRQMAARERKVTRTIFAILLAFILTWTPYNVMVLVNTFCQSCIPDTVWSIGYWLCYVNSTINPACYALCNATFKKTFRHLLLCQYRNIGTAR
Experiment: In vitro radioligand binding assay, M4, [3H]4-DAMP
Conditions: human recombinant (CHO cells)
Description: Certain compounds were tested by in vitro binding assays using standard procedures. […] These receptors and assays are well known to those skilled in the art, as exemplified by the following: Abramovitz, M. et al. (2000), Biochem. Biophys. Acta., 1483: 285-293 (EP4, IP (PGI2)); Aharony, D. et al. (1993), Mol. Pharmacol., 44: 356-363 (NK2); Ardati, A. et al. (1997), Mol. Pharmacol., 51: 816-824 (NOP (ORL1)); Bignon, E. et al. (1999), J. Pharmacol. Exp. Ther. 289: 742-751 (CCK1 (CCKA)); Bloomquist, B. T. et al. (1998), Biochem. Biophys. Res. Commun., 243: 474-479 (GAL2); Brockhaus, M. et al. (1990), Proc. Natl. Acad. Sci. U.S.A., 87: 3127-3131 (TNF-α); Brown, G. B. (1986), J. Neurosci., 6: 2064-2070 (Na+ channel (site 2)); Buchan, K. W. et al. (1994), Brit. J. Pharmacol., 112: 1251-1257 (ETA); Cesura, A. M. et al. (1990), Mol. Pharmacol., 37: 358-366 (MAO-A); Choi, D. S. et al. (1994), FEBS Lett., 352: 393-399 (5-HT2B); Clark, A. F. et al. (1996), Invest. Ophtalmol. Vis. […]

## Fc1cccc2c1CCO[C@@H]2[C@H]1CCN1 [Compound I-96, (R)-2-((S)-5-fluoroisochroman-1-yl)azetidine]
  M4 percent inhibition of specific binding: M4 (53%)
